One molecule from patent US7084122B2, “Use of glycosides of mono- and diacyglycerol as anti-inflammatory agents” (priority 2001, dated 2006) can be followed below.

Holding throughout (type): cell-based
Data set [1] relates to polymorphonuclear leukocytes. Nature of the data set: Cell viability by trypan blue dye exclusion. The settings on record: for Percent viability: DMSO control 100. The method, then: (§1) Polymorphonuclear leukocytes (PMNS) were isolated from the peripheral blood of healthy individuals in citrated glass. The cells were separated by dextran density gradient and lymphoprep separation. The purity of PMNs was greater than 98% and the cell viability as determined by trypan blue dye exclusion was greater than 98%.
Table 6. […] Cell viability was determined by a trypan blue dye exclusion method. The cells were incubated with trypan blue. The dead cells will take up dye and appear blue under the microscope. The results are show as percent viable cells.

The subject of data set [2] is human peripheral blood polymorphonuclear leukocytes. Nature of the data set: Chemotaxis assay, modified Boyden chamber, towards zymosan activated serum (ZAS). The method, then:
as §1
Chemotaxis assay was performed using a modified Boyden chamber technique as described in Jensen, P. and Kharazmi, A., Computer-assisted image analysis assay of human neutrophil chemotaxis in vitro. J. Immunol. Methods, 144, 43–48. 1991. The purified PMNs were pre-incubated with different dilutions of the extracted galactolipid for 30 min at 37° C. Following preincubation, the chemotaxis of the cells towards the chemotactic factor zymosan activated serum (ZAS), which contains the biologically active chemoattractant C5a, were tested. The migrated cells were counted by a computer-assisted image analysis system.

Data set [3] shares this test system. Nature of the data set: Chemiluminescence assay (oxidative burst response), stimulated with opsonized zymosan. As to conditions: for Chemiluminescence, Millivolts: DMSO control 664. As to the method: as §1
Chemiluminescence assay was used as a measure of oxygen radical generation by activated PMNs. The method was performed as described in Kharazmi, A., Høiby, N., Doring, G., and Valerius, N. H. Pseudomonas aeruginosa exoproteases inhibit human neutrophil chemiluminescence. Infect. Immun. 44, 587, 1984. PMNs were pre-incubated with different concentrations of the extracted galactolipid and then stimulated with opsonized zymosan. The oxidative burst response of the activated cells was measured by a luminometer (1250-LKB Wallace).

Like-named read-outs stand apart in the source and are kept apart here.

By inhibition is commonly meant the share of the control response that was lost under treatment.

Regarding `CC/C=C\C/C=C\C/C=C\CCCCCCCC(=O)OCC(CO[C@@H]1O[C@H](CO)[C@H](O)[C@H](O)[C@H]1O)OC(=O)CCCCCCC/C=C\C/C=C\C/C=C\CC` (stereo partly drawn) [GOPO, 3-β-D-galactopyranosyloxy-2-(octadeca-9Z,12Z,15Z-trienoyloxy)propanyl octadeca-9Z,12Z,15Z-trienoate], the values for the Percent viability in data set [1] (GOPO 50 μg/ml) and in data set [1] (GOPO 100 μg/ml) were 100% and 99%, respectively. Further, the “Toxicity to the cells (result in words)” value in data set [1] (at the tested concentrations) is “does not appear to be toxic”. Also, the Cells migrated is 39 in data set [2] (GOPO 0.1 μg/ml, new batch (Table 4), DMSO control 42); 15 in data set [2] (GOPO 1 μg/ml, new batch (Table 4), DMSO control 42); 16 in data set [2] (GOPO 10 μg/ml, new batch (Table 4), DMSO control 42); 5 in data set [2] (GOPO 50 μg/ml, first batch (Table 3), DMSO control 59); 8 in data set [2] (GOPO 100 μg/ml, first batch (Table 3), DMSO control 59); 12 in data set [2] (GOPO 100 μg/ml, new batch (Table 4), DMSO control 42). The inhibition at 0.1 µg/mL in data set [2] (Homo sapiens, Leukocyte, GOPO 0.1 μg/ml, new batch (Table 4), read-out: Percent inhibition) was found to be 7%. The inhibition at 1 µg/mL in data set [2] (Homo sapiens, Leukocyte, GOPO 1 μg/ml, new batch (Table 4), read-out: Percent inhibition) turned out to be 64%. Also, the inhibition at 10 µg/mL in data set [2] (Homo sapiens, Leukocyte, GOPO 10 μg/ml, new batch (Table 4), read-out: Percent inhibition) is 62%. For the same molecule, the inhibition at 50 µg/mL in data set [2] (Homo sapiens, Leukocyte, GOPO 50 μg/ml, first batch (Table 3), read-out: Percent inhibition) turned out to be 92%. In addition, the inhibition at 100 µg/mL was determined as 86% in data set [2] (Homo sapiens, Leukocyte, GOPO 100 μg/ml, first batch (Table 3), read-out: Percent inhibition) and 71% in data set [2] (Homo sapiens, Leukocyte, GOPO 100 μg/ml, new batch (Table 4), read-out: Percent inhibition). In data set [2] (at fairly low concentrations), the “Migration of human peripheral blood leukocytes towards zymosan-activated serum (result in words)” value is “inhibited”. Besides, the “Chemiluminescence, Millivolts” value in data set [3] (GOPO 50 μg/ml) amounted to 520 Millivolts; in data set [3] (GOPO 100 μg/ml), 339 Millivolts. Besides, in data set [3] (at fairly low concentrations), the “Chemiluminescence of human peripheral blood leukocytes (result in words)” value was “inhibited”.
